Reference: patent US20260240862A1, “COMBINATION OF ROGINOLISIB AND BCL-2 INHIBITOR IN THE TREATMENT OF HAEMATOLOGICAL MALIGNANCY” (IONCTURA SA, priority 2023, published 2026)

Experiments:
DNMT = conditions: more than that of azacytidine (Zhang 2022); cited from earlier work
SP49 (MCL) = assay: MTT antiproliferation assay, combination of Compound 1 and BCL-2 inhibitor, Chou-Talalay Combination Index; assay type: cell-based; conditions: BCL-2 inhibitor in combination with Compound 1, 72 hours
Description: (§1) Venetoclax, S55746, S64315, and S63845, were used at a maximum concentration of 10 μM, following an eight fold dose response based on 1:4 compound dilutions plus an untreated control.
(§2) Cells were incubated for 72 hours at 37° C. and 5% CO2. The antiproliferative effect of single and combination treatments were determined by adding 20 μL MTT [3-(4,5-dimethylthiazolyl-2)-2, 5-diphenyltetrazoliumbromide]reagent (Sigma Aldrich, Buchs, Switzerland) to each well and the plates were incubated at 37° C. for 4 hours, followed by adding 50 μL of sodium dodecyl sulfate (SDS) (250 μM SDS, 0.21% fuming HCl) lysis buffer. The lysed cells were kept overnight, and then the absorbance was read at 570 nm using the Cytation 3 instrument (BioTek, Winoosku, VT, USA). […] The effect of the combinations was defined as strongly synergistic for CI values below <0.3, synergistic for CI values between 0.3 and 0.9, additive for CI values between 0.9 and 1.1, and antagonistic for CI values >1.1.

JVM2 (MCL) = assay: as above; assay type: cell-based; conditions: BCL-2 inhibitor in combination with Compound 1, 72 hours
Description: as §1, §2

TMD8 (DLBCL) = assay: as above; assay type: cell-based; conditions: BCL-2 inhibitor in combination with Compound 1, 72 hours
Description: as §1, §2

MEC1 (CLL) = assay: as above; assay type: cell-based; conditions: BCL-2 inhibitor in combination with Compound 1, 72 hours
Description: as §1, §2

MJ (CTCL) = assay: as above; assay type: cell-based; conditions: BCL-2 inhibitor in combination with Compound 1, 72 hours
Description: as §1, §2

Granta519 (MCL) = assay: as above; assay type: cell-based; conditions: BCL-2 inhibitor in combination with Compound 1, 72 hours
Description: as §1, §2

SMILES | inhibitory activity of DNMT relative to azacytidine (DNMT) [times] | CI value (median) (SP49 (MCL)) | CI value (median) (JVM2 (MCL)) | CI value (median) (TMD8 (DLBCL)) | CI value (median) (MEC1 (CLL)) | CI value (median) (MJ (CTCL)) | CI value (median) (Granta519 (MCL))
Nc1ncn([C@H]2C[C@H](O)[C@@H](CO)O2)c(=O)n1 [Decitabine, 5-aza-2′-deoxycytidine] | 30 | – | – | – | – | – | –
COc1ccccc1-c1nccc(COc2ccccc2C[C@@H](Oc2ncnc3sc(-c4ccc(F)cc4)c(-c4ccc(OCCN5CCN(C)CC5)c(Cl)c4C)c23)C(=O)O)n1 (atropisomer, axis not shown) [Compound S64315, (R)-2-((5-(3-chloro-2-methyl-4-(2-(4-methylpiperazin-1-yl)ethoxy)phenyl)-6-(4-fluorophenyl)thieno[2,3-d]pyrimidin-4-yl)oxy)-3-(2-((2-(2-methoxyphenyl)pyrimidin-4-yl)methoxy)phenyl)propanoic acid] | – | 0.71 | 0.24 | 0.23 | 0.88 | – | –
Cc1c(-c2c(-c3ccc(F)o3)sc3ncnc(O[C@H](Cc4ccccc4OCc4ccnn4CC(F)(F)F)C(=O)O)c23)ccc(OCCN2CCN(C)CC2)c1Cl (atropisomer, axis not shown) [Compound S63845, (R)-2-((5-(3-chloro-2-methyl-4-(2-(4-methylpiperazin-1-yl)ethoxy)phenyl)-6-(5-fluorofuran-2-yl)thieno[2,3-d]pyrimidin-4-yl)oxy)-3-(2-((1-(2,2,2-trifluoroethyl)-1H-pyrazol-5-yl)methoxy)phenyl)propanoic acid] | – | – | 0.33 | 0.86 | – | 0.67 | 0.47
CC1(C)CCC(CN2CCN(c3ccc(C(=O)NS(=O)(=O)c4ccc(NCC5CCOCC5)c([N+](=O)[O-])c4)c(Oc4cnc5[nH]ccc5c4)c3)CC2)=C(c2ccc(Cl)cc2)C1 [Venetoclax, 4-(4-{[2-(4-Chlorophenyl)-4,4-dimethyl-1-cyclohexen-1-yl]methyl}-1-piperazinyl)-N-({3-nitro-4-[(tetrahydro-2H-pyran-4-ylmethyl)amino]phenyl}sulfonyl)-2-(1H-pyrrolo[2,3-b]pyridin-5-yloxy)benzamide] | – | – | 0.15 | – | 0.05 | 0.47 | 0.81
O=C(c1cc(-c2cc3c(cc2C(=O)N2Cc4ccccc4C[C@H]2CN2CCOCC2)OCO3)n2c1CCCC2)N(c1ccccc1)c1ccc(O)cc1 [Compound S55746, (S)—N-(4-hydroxyphenyl)-3-(6-(3-(morpholinomethyl)-1,2,3,4-tetrahydroisoquinoline-2-carbonyl)benzo[d][1,3]dioxol-5-yl)-N-phenyl-5,6,7,8-tetrahydroindolizine-1-carboxamide] | – | – | 0.46 | 0.4 | 0.21 | – | –
